The values that follow come from ChEMBL document CHEMBL4339185 (Eur J Med Chem, 2019).

Data set [1] relates to Staphylococcus epidermidis. In words: Antimicrobial activity against Staphylococcus epidermidis ATCC 49134 incubated for 18 hrs by serial microdilution method. It counts as functional. The following applies: ATCC 49134, 18 h.
Data set [2] has as its system Staphylococcus epidermidis. Kind of data set: Potency index, ratio of rifampicin MIC to compound MIC for Staphylococcus epidermidis ATCC 49134. The data set is classed as functional.
Data set [3] can be described thus: Solubility of the compound in water at pH 7 by UV-vis spectrophotometric analysis. The data set is classed as physicochemical.
The test system of data set [4] is Staphylococcus epidermidis. Kind of data set: Potency index, ratio of rifaximin MIC to compound MIC for Staphylococcus epidermidis ATCC 49134. It counts as functional.
In data set [5] the test system is Staphylococcus epidermidis. Kind of data set: Antimicrobial activity against Staphylococcus epidermidis ATCC 12228 incubated for 18 hrs by serial microdilution method. The settings on record: ATCC 12228, 18 h. It counts as functional. For orientation: Broth dilution looks for growth in wells or tubes with falling amounts of substance.
The subject of data set [6] is Escherichia coli. In words: Antimicrobial activity against Escherichia coli ATCC 25922 incubated for 18 hrs by serial microdilution method. The settings on record: ATCC 25922, 18 h. It counts as functional.
The test system of data set [7] is Enterococcus faecalis. Kind of data set: Potency index, ratio of rifampicin MIC to compound MIC for Enterococcus faecalis ATCC 29212. The data set is classed as functional.
Data set [8] concerns Staphylococcus aureus. Kind of data set: Potency index, ratio of rifampicin MIC to compound MIC for Staphylococcus aureus ATCC 6538. It counts as functional.
Data set [9] has as its system Staphylococcus aureus. In words: Potency index, ratio of rifaximin MIC to compound MIC for Staphylococcus aureus ATCC 6538. It counts as functional.
Data set [10] deals with Staphylococcus epidermidis. In words: Potency index, ratio of rifampicin MIC to compound MIC for Staphylococcus epidermidis ATCC 12228. It counts as functional.
In data set [11] the test system is Enterococcus faecalis. In words: Antimicrobial activity against Enterococcus faecalis ATCC 29212 incubated for 18 hrs by serial microdilution method. The data set is classed as functional. The settings on record: ATCC 29212, 18 h.
Data set [12] in a line: Lipophilicity, log P of the compound in octanol and water incubated for 1 h under shaking condition. The data set is classed as physicochemical.
The test system of data set [13] is Staphylococcus epidermidis. In words: Potency index, ratio of rifaximin MIC to compound MIC for Staphylococcus epidermidis 12228. The data set is classed as functional.
Data set [14] has as its system Staphylococcus aureus. In words: Antimicrobial activity against methicillin-resistant Staphylococcus aureus incubated for 18 hrs by serial microdilution method. It counts as functional.
The subject of data set [15] is Staphylococcus aureus. Kind of data set: Antimicrobial activity against Staphylococcus aureus ATCC 6538 incubated for 18 hrs by serial microdilution method. The data set is classed as functional. The settings on record: ATCC 6538, 18 h.
The test system of data set [16] is Staphylococcus aureus. Kind of data set: Antimicrobial activity against MLSB-resistant Staphylococcus aureus incubated for 18 hrs by serial microdilution method. The data set is classed as functional.
Data set [17] relates to Enterococcus faecalis. In words: Potency index, ratio of rifaximin MIC to compound MIC for Enterococcus faecalis ATCC 29212. It counts as functional.

≈ marks a conversion by molar mass, not a printed value. Bounds are passed on as bounds.

In the case of `CO[C@H]1/C=C/O[C@@]2(C)Oc3c(C)c(O)c4c(O)c(c(/C=N/NC5=NCCN5)c(O)c4c3C2=O)NC(=O)/C(C)=C\C=C\[C@H](C)[C@H](O)[C@@H](C)[C@@H](O)[C@@H](C)[C@H](OC(C)=O)[C@@H]1C`, the MIC was 0.0078 µg/mL (≈ 0.00965 µM) in data set [1]; 0.0078 µg/mL (≈ 0.00965 µM) in data set [5]; more than 8 µg/mL in data set [6]; 1 µg/mL (≈ 1.24 µM) in data set [11]; 0.0156 µg/mL (≈ 0.0193 µM) in [14]; 0.0078 µg/mL (≈ 0.00965 µM) in data set [15]. The lowest concentration to inhibit growth in data set [16] (MIC) was 0.0078 µg/mL (≈ 0.00965 µM). Further, the Ratio in data set [2], in data set [4], in data set [7], in [8], in data set [9] and in data set [10] was 8 in each case. For the same molecule, the Ratio in data set [13] and in data set [17] was 8 in each case. The amount in solution in data set [3] (solubility) came to 4250 µg/mL (≈ 5260 µM). Also, the lipophilicity (logP) at 1 h in data set [12] is 1.33.
For `CO[C@H]1/C=C/O[C@@]2(C)Oc3c(C)c(O)c4c(O)c(c(CN5CCC(N6CCC(C(=O)O)CC6)CC5)c(O)c4c3C2=O)NC(=O)/C(C)=C\C=C\[C@H](C)[C@H](O)[C@@H](C)[C@@H](O)[C@@H](C)[C@H](OC(C)=O)[C@@H]1C`, the minimal inhibitory concentration (MIC) is 0.0078 µg/mL (≈ 0.00846 µM) in data set [1]; 0.0078 µg/mL (≈ 0.00846 µM) in data set [5]; more than 8 µg/mL in data set [6]; 1 µg/mL (≈ 1.08 µM) in [11]; 0.0078 µg/mL (≈ 0.00846 µM) in [14]; 0.0078 µg/mL (≈ 0.00846 µM) in [15]. In addition, inhibition of growth in [16] (MIC) required 0.0078 µg/mL (≈ 0.00846 µM). Besides, the Ratio in data set [2], in data set [4], in data set [7], in data set [8], in [9] and in [10] was 8 throughout. The Ratio in data set [13] and in data set [17] was 8 in each case. The molecule also yielded a solubility in [3] of 70000 µg/mL (≈ 75900 µM). The molecule further registered a logP at 1 h in data set [12] of -1.34.
On to `CO[C@H]1/C=C/O[C@@]2(C)Oc3c(C)c(O)c4c(O)c(c(CNC5CCN(CC6CCCCC6)CC5)c(O)c4c3C2=O)NC(=O)/C(C)=C\C=C\[C@H](C)[C@H](O)[C@@H](C)[C@@H](O)[C@@H](C)[C@H](OC(C)=O)[C@@H]1C`, for which the MIC was 0.125 µg/mL (≈ 0.138 µM) in data set [1]; 0.125 µg/mL (≈ 0.138 µM) in data set [5]; more than 8 µg/mL in data set [6]; 4 µg/mL (≈ 4.41 µM) in data set [11]; 0.25 µg/mL (≈ 0.276 µM) in data set [14]; 0.25 µg/mL (≈ 0.276 µM) in [15]. The same molecule had an MIC in data set [16] of 0.125 µg/mL (≈ 0.138 µM). Also, the solubility in data set [3] was less than 50 µg/mL. The same molecule registered a logP at 1 h in data set [12] of 3.31.

A word on the MIC: it is the smallest concentration in the dilution series that meets the test's criterion for growth inhibition. By solubility is commonly meant the concentration that dissolves in the medium under given conditions. Lower therefore signals little dissolved substance. Broadly, the logP is a log measure of how a compound divides between an organic and an aqueous phase. Higher therefore signals higher lipophilicity.
